Data on seven molecules can be found in patent publication EP0369733A2, “Fluorescent indicator dyes for alkali metal cations, their preparation and use” (THE REGENTS OF THE UNIVERSITY OF CALIFORNIA, priority 1988, dated 1990).

“And” between values parts separate entries of the source, which are not always exact repeats. Equal values may be shown once.

A short description of series [1]: Cation titration followed by absorbance or fluorescence excitation spectra: Mg²⁺ binding. The note with it: read-out: Dissociation constants (Kd) in mM for Mg²⁺. The procedure:
(§1) • Footnote a: For molecular structures, see Fig. 1. • Footnote b: Except where otherwise noted, these dissociation constants were measured with the chelator dissolved in 0.1 M tetramethylammonium chloride, at a pH held high enough with 1-5 mM tris(hydroxymethyl)aminomethane for protonation to be insignificant. The absorbance spectrum, or the fluorescence excitation spectrum for those compounds (2GG, 2NN, 2OO, 2PP, 3NN) with acronyms was measured as a function of the concentration of cation added as a solid or concentrated aqueous solution of the halide salt. No correction has been made for the changing ionic strength of the solution, which started from 0.1 M and increased, but the absorbances and fluorescence amplitudes were applied for dilution of the dye and any slight quenching due to high concentrations of Cl⁻. • Footnote c: These protonation constants were determined in 0.1 M tetramethylammonium chloride, 10 mM tris(hydroxymethyl)aminomethane, titrated with 5 M H₃PO₄ to successively lower pH values measured with a Radiometer PHM84 meter. […] The first number is the wavelength in nanometers, followed in parentheses by 10⁻³ x the corresponding extinction coefficient, M⁻¹cm⁻¹. […] Emission maxima are not corrected for the spectral sensitivity of the emission detection. Quantum efficiencies were measured (13) by comparing the integral of the corrected emission spectrum with the corresponding integral for a solution of quinine bisulfate in 1 N H₂SO₄ of matched absorbance at the excitation wavelength.
(§2) Affinities for other cations were usually measured by titrating aqueous solutions of the indicator with metal chlorides added either as solid or from concentrated stock solutions, taking care to minimize dilution and correct for it. A convenient way to mass-produce premeasured micromole to millimole aliquots of solid NaCl or KCl was to pipet saline solutions into polypropylene micro test tubes and evaporate the water in an oven. The standard ionic background was again 100 mM tetramethylammonium chloride, usually with a few mM of tris(hydroxymethyl)-aminomethane base to hold the pH high enough (pH 8-9) to insure that protonation was negligible. This convenient titration procedure had the slight disadvantage that the ionic strength was not constant, especially when large quantities of a salt had to be added due to weak affinities. […] When constant ionic strength was desired, the chelator was made up at identical concentrations in matched solutions of NaCl, KCl, or tetramethylammonium chloride, then these stocks were mixed in the desired proportions.

A short description of series [2]: UV absorbance spectra without and with saturating cation. In kind it is physicochemical. The note with it: for Absorbance maxima -Na⁺ (wavelength): 100 mM tetramethylammonium chloride plus 1-5 mM Tris; for Absorbance maxima -Na⁺ (wavelength) / Absorbance maxima -Na⁺ (extinction coefficient): no Na⁺; for Absorbance maxima +Na⁺ (wavelength): enough NaCl added (0.2-1 M) to saturate the Na⁺ binding; for Absorbance maxima -Na⁺ (extinction coefficient) / Absorbance maxima +Na⁺ (extinction coefficient) / Absorbance maxima +Na⁺, footnote l (extinction coefficient): number is 10⁻³ x the extinction coefficient; for Absorbance maxima -Na⁺ (extinction coefficient): lower limits for most compounds; for Absorbance maxima +Na⁺ (extinction coefficient): lower limits, saturating NaCl (0.2-1 M); for Absorbance maxima +Na⁺, footnote l (extinction coefficient) / Absorbance maxima +Na⁺, footnote l (wavelength): saturating K⁺ rather than Na⁺. The procedure:
as §1
(§3) UV absorbance spectra were recorded initially on a Cary 210 and later on a Perkin-Elmer Lambda Array 3840 spectrophotometer. Fluorescence excitation and emission spectra and quantum efficiencies were measured on a Spex Fluorolog 111 as described previously (13).

The nature of series [3]: physchem.
Method: The lowest curve ([Na⁺] = 0) was obtained with 5 µM SBFI in 130 mM KCl, 10 mM MOPS, KOH to pH 7.05, approximately 135 mM total K⁺. The highest curve ([Na⁺] = 135 mM) was analogously recorded from 5 µM SBFI in 130 mM NaCl, 10 mM MOPS, NaOH to pH 7.05. The intermediate curves from 1.35 to 94.5 mM Na⁺ were obtained by successively 1/100, 1/99, 3/98, 1/19, 1/9, 1/4, and 1/2 of the K⁺-rich SBFI solution by the SBFI in Na medium. The excitation bandwidth was 1.85 nm; emission was collected at 500 nm with 9.3 nm bandwidth. […] The lowest curve was obtained in 130 mM NaCl, 10 mM MOPS, NaOH to pH 7.05. The highest curve was in 130 mM KCl, 10 mM MOPS, KOH to pH 7.05. The intermediate curves with 13.5 to 112.5 mM K⁺ were obtained by iteratively replacing 1/10, 1/9, 1/6, 1/4, 1/3, and 1/2 of the low K⁺ medium by the 135 mM KCl solution of PBFP.
Proton dissociation constants of the chelators were measured by spectrophotometry or spectrofluorometry of buffered solutions, containing either 100 mM tetramethylammonium chloride as inert supporting electrolyte, or 121.5 mM K⁺, 13.5 mM Na⁺, and 1 mM Mg²⁺ to simulate the cation environment of vertebrate cytoplasm (14). […] When the chelators contained two protonatable nitrogens, the curve of absorbance or fluorescence versus pH was analyzed by computerized least-squares fitting to the equations for two arbitrary proton equilibria (15), with the added assumption that the two protonations each caused the same change in extinction coefficient or fluorescence. This assumption was based on the presence of two identical chromophores in each chelator and produced good fits to the experimental data.
Series [4] is described as follows: Fluorescence excitation/emission spectra and quantum efficiency. It is filed as physicochemical. To be noted: for Emission maxima -Na⁺: 100 mM tetramethylammonium chloride; for Emission maxima -Na⁺ / Quantum efficiency -Na⁺: no Na⁺; for Emission maxima -Na⁺ / Emission maxima +Na⁺: not corrected for detector sensitivity; for Quantum efficiency -Na⁺ / Quantum efficiency +Na⁺: relative to quinine bisulfate in 1 N H₂SO₄ (0.55); for Emission maxima +Na⁺: saturating NaCl; for Quantum efficiency +Na⁺: saturating Na⁺; for Emission maxima +Na⁺, footnote l / Quantum efficiency +Na⁺, footnote l: saturating K⁺ rather than Na⁺. As to the method:
as §1, §3

Series [5] can be described thus: Cation titration followed by absorbance or fluorescence excitation spectra: Na⁺ binding. As to the method: as §1
as §2, with “proportions. All measurements were made at room temperature (22°, ±2° C).” for “proportions.”

The nature of series [6]: Proton dissociation constants in 0.1 M tetramethylammonium chloride. To be noted: second value (second protonation), 10 mM Tris titrated with 5 M H₃PO₄.
Method: (§4) • Footnote a: For molecular structures, see Fig. 1. • Footnote b: Except where otherwise noted, these dissociation constants were measured with the chelator dissolved in 0.1 M tetramethylammonium chloride, at a pH held high enough with 1-5 mM tris(hydroxymethyl)aminomethane for protonation to be insignificant. […] No correction has been made for the changing ionic strength of the solution, which started from 0.1 M and increased, but the absorbances and fluorescence amplitudes were applied for dilution of the dye and any slight quenching due to high concentrations of Cl⁻. • Footnote c: These protonation constants were determined in 0.1 M tetramethylammonium chloride, 10 mM tris(hydroxymethyl)aminomethane, titrated with 5 M H₃PO₄ to successively lower pH values measured with a Radiometer PHM84 meter.
(§5) Proton dissociation constants of the chelators were measured by spectrophotometry or spectrofluorometry of buffered solutions, containing either 100 mM tetramethylammonium chloride as inert supporting electrolyte, or 121.5 mM K⁺, 13.5 mM Na⁺, and 1 mM Mg²⁺ to simulate the cation environment of vertebrate cytoplasm (14). Traces of UV-absorbing impurities in the tetramethylammonium chloride (Alfa Inorganics) were removed by filtration through acid-­washed activated charcoal. The concentration of the tetramethylammonium chloride was then measured by chloride titration, and the absence of significant Na⁺ contamination was verified with a sodium-selective glass electrode (Microelectrodes Inc.). When the chelators contained two protonatable nitrogens, the curve of absorbance or fluorescence versus pH was analyzed by computerized least-squares fitting to the equations for two arbitrary proton equilibria (15), with the added assumption that the two protonations each caused the same change in extinction coefficient or fluorescence.
Series [7] is described as follows: physchem. To be noted: 0.1 m tetramethylammonium chloride.
Method: as §4, §5
Series [8] can be described thus: Solubility in water for spectrophotometry. In kind it is physicochemical.
A short description of series [9]: Cation titration followed by absorbance or fluorescence excitation spectra: Ca²⁺ binding. To be noted: 0.1 M tetramethylammonium chloride, 1-5 mM tris(hydroxymethyl)aminomethane, high pH; read-out: Dissociation constants (Kd) in mM for Ca²⁺. As to the method: as §1
as §2, with “proportions. All measurements were made at room temperature (22°, ±2° C).” for “proportions.”

The nature of series [10]: Cation titration followed by absorbance or fluorescence excitation spectra: K⁺ binding. To be noted: 0.1 M tetramethylammonium chloride, 1-5 mM tris(hydroxymethyl)aminomethane, high pH; read-out: Dissociation constants (Kd) in mM for K⁺. The procedure:
as §1
Affinities for other cations were usually measured by titrating aqueous solutions of the indicator with metal chlorides added either as solid or from concentrated stock solutions, taking care to minimize dilution and correct for it. […] This convenient titration procedure had the slight disadvantage that the ionic strength was not constant, especially when large quantities of a salt had to be added due to weak affinities. […]

Series [11] in a line: Cation titration followed by absorbance or fluorescence excitation spectra: Li⁺ binding. As to the method: as §1
as §2, with “proportions. All measurements were made at room temperature (22°, ±2° C).” for “proportions.”

For series [12] the following is noted: quinine bisulfate in 1 N H₂SO₄; assumed value; cited from earlier work.
Where [13] appears, read: 0.1 M tetramethylammonium chloride, 1-5 mM tris(hydroxymethyl)aminomethane, high pH.
The mark [14] stands for this setting: 0.1 M tetramethylammonium chloride, 1-5 mM tris(hydroxymethyl)aminomethane, pH high enough for protonation to be insignificant, 22°, read-out: Dissociation constants (Kd) in mM for Na⁺.
The mark [15] stands for this setting: footnote h: 3.0 M ionic strength (3.0 M NaCl mixed with 3.0 M tetramethylammonium chloride), read-out: Dissociation constants (Kd) in mM for Na⁺.

Broadly, the pKa is the pH at which an ionisable group is half protonated. Turning to `COc1cc2cc(-c3ncc(C(=O)O)o3)oc2cc1N1CCOCCOCCN(c2cc3oc(-c4ncc(C(=O)O)o4)cc3cc2OC)CCOCC1` [Compound 2OO, N,N-bis-(2-(5-carboxyoxazol-2-yl)-5-methoxybenzofuran-6-yl)-diaza[15]-crown-5], the Kd in [1] (setting [13]) turned out to be 63 mM; in [5] (setting [14]), 50 mM; in [5] (setting [15]), 22 mM. Moreover, the “Absorbance maxima -Na⁺ (wavelength)” value in [2] turned out to be 355 nanometers. In addition, the “Absorbance maxima +Na⁺ (wavelength)” value in [2] is on record as 343 nanometers. Moreover, the Absorbance maxima -Na⁺ (extinction coefficient) in series [2] was 25000 M⁻¹ cm⁻¹. For the same molecule, the Absorbance maxima +Na⁺ (extinction coefficient) in series [2] is 27000 M⁻¹ cm⁻¹. The pKa in “physchem [3]” (126 mm kcl, 14 mm nacl) turned out to be 4.82; in series [6], 4.15; in “physchem [7]”, 5.34. In addition, the “Emission maxima -Na⁺” value in [4] is listed as 515 nanometers. For the same molecule, the figures for the “Quantum efficiency -Na⁺” value in [4] (listed as 2OO (SBFO)) and in series [4] (listed as SBFO) were “.14” and 0.14, respectively. For the same molecule, the “Emission maxima +Na⁺” value in [4] amounted to 500 nanometers. The “Quantum efficiency +Na⁺” value in [4] (listed as 2OO (SBFO)) is recorded as “.44”; in series [4] (listed as SBFO) it was 0.44. The “Na⁺ affinity” value in series [5] (association constant, inert background cation (tetramethylammonium)) amounted to 20 M⁻¹.
For the molecule “N,N-bis-(1-acetamidoacridin-4-yl)-diaza[15]-crown-5 [Compound 2HH]”, in series [8], the solubility in water entry was “insufficiently soluble in water for spectrophotometry”.
For the molecule `COc1cc2cc(-c3ccc(C(=O)O)cc3C(=O)O)oc2cc1N1CCOCCOCCN(c2cc3oc(-c4ccc(C(=O)O)cc4C(=O)O)cc3cc2OC)CCOCCOCC1` [Compound 3PP], the Kd in series [1] (setting [13]) is 40 mM. For the same molecule, in [2], the “Absorbance maxima -Na⁺ (wavelength)” value is recorded as 350 nanometers; the Absorbance maxima -Na⁺ (extinction coefficient) amounted to 42000 M⁻¹ cm⁻¹; the Absorbance maxima +Na⁺, footnote l (extinction coefficient) came to 42000 M⁻¹ cm⁻¹; the “Absorbance maxima +Na⁺, footnote l (wavelength)” value is on record as 344 nanometers. The molecule further showed a pKa in “physchem [3]” of 5.78. Also, in [4], the “Emission maxima -Na⁺” value is 545 nanometers; the “Quantum efficiency -Na⁺” value is “.024”; the “Emission maxima +Na⁺, footnote l” value is 504^l nanometers; the “Quantum efficiency +Na⁺, footnote l” value is listed as “.072^l”. Besides, in [9], the Kd was 16 mM. In series [5] (setting [14]), the Kd was determined as 21 mM. In series [10], the Kd was 8 mM.
Consider `COc1cc2cc(-c3ccc(C(=O)O)c(C(=O)O)c3)oc2cc1N1CCOCCOCCN(c2cc3oc(-c4ccc(C(=O)O)c(C(=O)O)c4)cc3cc2OC)CCOCCOCC1` [Compound 3NN, N,N-bis(2-(3,4-dicarboxyphenyl)-5-methoxybenzofuran-6-yl)-diaza[18]-crown-5], for which, in [2], the “Absorbance maxima -Na⁺ (wavelength)” value came out at 344 nanometers; the Absorbance maxima -Na⁺ (extinction coefficient) turned out to be 23000 M⁻¹ cm⁻¹; the Absorbance maxima +Na⁺, footnote l (extinction coefficient) came out at 25000 M⁻¹ cm⁻¹; the “Absorbance maxima +Na⁺, footnote l (wavelength)” value turned out to be 337 nanometers. Besides, the pKa in the series “physchem [3]” (126 mm kcl, 14 mm nacl) stood at 6.68. Further, in series [4], the “Emission maxima -Na⁺” value is 518 nanometers; the “Quantum efficiency -Na⁺” value was “.0075”; the “Emission maxima +Na⁺, footnote l” value is given as 494^l nanometers; the “Quantum efficiency +Na⁺, footnote l” value is recorded as “.12^l”. Also, the Kd in series [10] was determined as 83 mM.
`CC(=O)Nc1ccc(N2CCOCCOCCN(c3ccc(NC(C)=O)c4cccnc34)CCOCC2)c2ncccc12` [Compound 2CC, N,N-bis-(5-acetamido-8-quinolinyl)-diaza[15]-crown-5]: the Kd in [1] (footnote i: free [Mg²⁺] controlled by Mg²⁺-nitrilotriacetate buffers at pH 8.5) came out at 0.078 mM; in [11] (0.1 M tetramethylammonium chloride, 1-5 mM tris(hydroxymethyl)aminomethane, high pH, read-out: Dissociation constants (Kd) in mM for Li⁺), 2.8 mM; in [9] it was 0.075 mM; in series [5] (setting [14]), 5.3 mM; in series [5] (setting [15]), 2.4 mM. In series [11] (compared with its Na⁺ affinity), the “affinity for Li⁺ (in words)” value is listed as “comparable to that for Na⁺”. The “Absorbance maxima -Na⁺ (wavelength)” value in series [2] was 346 nanometers and 250 nanometers. In series [2], the “Absorbance maxima +Na⁺ (wavelength)” value is 304 nanometers and 230 nanometers. Further, the “Na⁺ affinity” value in series [5] (depending on ionic strength) fell in the range of 190 to 415 M⁻¹. The pKa in series [6] is 5.43; in the series “physchem [7]”, 6.85.
`COc1cc2cc(-c3ccc(C(=O)O)c(C(=O)O)c3)oc2cc1N1CCOCCOCCN(c2cc3oc(-c4ccc(C(=O)O)c(C(=O)O)c4)cc3cc2OC)CCOCC1` [Compound 2NN, N,N-bis-(2-(3,4-dicarboxyphenyl)-5-methoxybenzofuran-6-yl)-diaza[15]-crown-5]: the Kd in series [1] (setting [13]) was 18 mM. In [2], the “Absorbance maxima -Na⁺ (wavelength)” value is listed as 342 nanometers, the “Absorbance maxima +Na⁺ (wavelength)” value is listed as 334 nanometers, the Absorbance maxima -Na⁺ (extinction coefficient) turned out to be 45500 M⁻¹ cm⁻¹ and the Absorbance maxima +Na⁺ (extinction coefficient) is 51600 M⁻¹ cm⁻¹. The pKa in the series “physchem [3]” (126 mm kcl, 14 mm nacl) turned out to be 6.4. In [4], the “Emission maxima -Na⁺” value is listed as 528 nanometers, the “Quantum efficiency -Na⁺” value is on record as “.036”, the “Emission maxima +Na⁺” value came out at 505 nanometers and the “Quantum efficiency +Na⁺” value is “.091”. Moreover, the Kd in series [9] is 40 mM. In addition, the Kd in series [5] (setting [14]) stood at 8.5 mM. Also, the Kd in [5] (summary statement, conditions not specified, read-out: dissociation constant (Na⁺), range achieved) lay in the range of 5 to 20 mM. The pKa in series [6] was 5.5. The pKa in the series “physchem [7]” is 6.3.
In the case of `C=C[C@H]1C[N@@]2CC[C@H]1C[C@H]2[C@H](O)c1ccnc2ccc(OC)cc12` [Quinine, quinine bisulfate], in [12], the “quantum efficiency of reference standard” value is 0.55.
